Data: US10066272B2, “Human homeobox gene ventx and macrophage terminal differentiation and activation, compositions and methods thereof” (priority 2011, dated 2018)

Test system: macrophages
Assay: Macrophage classical activation after siRNA transfection, surface markers by flow cytometry
Format: cell-based, human
Details: transfected macrophages
Description: Macrophages were generated through incubation of freshly isolated monocytes with 100 ng/mL M-CSF for 4 days. These macrophages were then transfected with siGFP or siVentX, respectively, and further cultured in RPMI 1640 medium for additional 3 days. Thereafter, cells were exposed to 1 μg/mL LPS plus 20 ng/mL γ-IFN for 6 hours. (A) Surface staining of CD40, CD80, CD86 and HLA-DR and intracellular staining of TNF-α and IL1-β were analyzed by flow cytometry. (B) Secreted TNF-α, IL1-β and IL12p70 from culture supernatants were determined with ELISA kits. (C) Reactive oxygen species (ROS) from siGFP or siVentX transfected macrophages were analyzed with fluorescence microscope (left) and flow cytometry (middle). […] (D) Nitrate level from siGFP and siVentX transfected macrophages. Data represent mean+SD of three different experiments. (E) Phagocytosis of siGFP and siVentX transfected macrophage. Red histogram represents transfection with siGFP; green histogram represents transfection with siVentX. Left panel: cells were incubated on ice; right panel: cells were incubated at 37° C. (F) Effects of VentX knockdown on mixed lymphocyte reaction. […]
(A) Effects VentX over-expression on the expression of LPS and IFN-γ pathways components. […] No significant binding of VentX to the promoter regions of STAT1 and JunB was detected by the ChIP assay. […]

## siVentX: VentX siRNA, forward 5′-UUCAGAAUCGCCGCAUGAAACACAAACGG-3′ (SEQ ID NO:4), reverse SEQ ID NO:5 (antisense CCGUUUGUGUUUCAUGCGGCGAUUCUGAA; listed as RNA, chemistry not given here)
LPS plus IFN-γ, HLA-DR not affected (FIG. 8A)
  surface expression of CD40, CD80 and CD86: significantly down-regulated
Flow cytometry (FIG. 9C)
  surface expression of CD119 (IFN-γ receptor 1), CD14 and TLR4: significantly diminished
